Assays:
5-HT1B/1D receptor = experiment: cAMP levels; assay type: cell-based
MCF10A = experiment: MTS cell viability assay on normal breast epithelium; assay type: cell-based, human; details: at IC50 to IC90 doses in breast cancer cells (MCF7)
Text: (§1) (aka proliferation assay, in this case MTS assay was used. MTS, MTT, XTT all similar assays often used as cell viability/toxicity assay). Cell viability in response to compounds such as 5NT and KD06 was studied with a tetrazolium/formazan based assay (MTS, Celltiter 96 aqueous one solution cell proliferation assay, Promega, WI) [Akar U, Chaves-Reyez A, Barria g Tari A, Sanguino A, Kondo Y, Kondo S, Arun B, Lopez-Berestein G, Ozpolat B: Silencing of Bcl-2 expression by small interfering RNA induces autophagic cell death in MCF-7 breast cancer cells. Autophagy 2008, 4:669-679, Ozpolat 2007 MCR]. Cells were seeded in 96 wells plates at a density of 1.5 to 3.0×10^3 cells per well in 100 μl of medium. Next day the medium was removed and cells were treated with the drug in 100 μl of medium for 72 hours. Plates were read at 490 nm wavelength in an Elisa plate reader (Kinetic Microplate Reader, Molecular Devices Corporation, Sunnyvale, Calif.).

breast cancer cells = experiment: Cell viability assay, breast cancer cell panel or cell line not stated; assay type: cell-based, human
Text: as §1

[1] = test system: 5-HT1B or 5-HT1D receptor; experiment: Effect on cell proliferation after siRNA knockdown of 5-HT1B or 5-HT1D receptor; assay type: cell-based
ERK (p42/p44) and LC3-II = experiment: Western blot of p-ERK and LC3-II after 5-HT1B antagonists; assay type: cell-based, human; details: for phosphorylation of ERK (p42/p44): Western blot
Procedure: After treatment the cells were trypsinized and collected by centrifugation, and whole-cell lysates were obtained using a lysis buffer as described previously [Akar U, et al. Mol Cancer Res 2007: 5:241-249]. Total protein concentration was determined using a DC protein assay kit (Bio-Rad, Hercules, Calif.). Aliquots containing […] of total protein from each sample were subjected to sodium dodecyl sulfate-polyacrylamide gel electrophoresis (SDS-PAGE) with a 4-20% gradient and electrotransferred to nitrocellulose membranes. The membranes were blocked with 5% dry milk in Tris-buffered saline-Tween 20 (TBST), probed with primary antibodies anti EREK1/2 or p-ERK1/2 (Cell signaling), polyclonal LC3 antibody (Novus biologicals, Littleton, Colo.). The antibodies were diluted in TBST containing 2.5% dry milk and incubated at 4 C overnight. After the membranes were washed with TBST, they were incubated with horseradish peroxidase-conjugated anti-rabbit or anti-mouse secondary antibody (Amersham Life Science, Cleveland, Ohio). Mouse anti-actin and donkey anti-mouse secondary antibodies (Sigma Chemical, St. Louis, Mo.) were used to monitor-actin expression to ensure equal loading of proteins. Chemiluminescent detection was performed with Chemi-glow detection reagents (Alpha Innotech, San Leandro, Calif.). The blots were visualized with a FluorChem 8900 imager and quantified by a densitometer using the Alpha Imager application program (Alpha Innotech, San Leandro, Calif.).

MCF7 breast cancer cells = experiment: Acridine orange staining of acidic vesicular organelles (autophagy), FACS; assay type: cell-based, human; details: for percentage of acridine orange positive cells: flow cytometry, control untreated cells 2%
Text: To determine the role of serotonin 5-HT1B receptor in cell survival and the mechanism of growth inhibition induced by HT1B inhibitors we investigated cell death in breast cancer cells. When 5-HT1B was inhibited by either SB224289 or SB216641 we detected marked induction of autophagy (FIG. 28A) as detected by acridine orange staining, apoptosis by Annexin V and necrosis by propidium iodide (PI) staining and FACS analysis (FIG. 28B) in MCF7 breast cancer cells. Induction of acidic vacuoles by acridine orange staining was also observed in MDA-MB231 cells after SB224289 treatment for 72 hours (p<0.05) (FIG. 28C).
(§2) To detect and quantify acidic vesicular organelles, we stained cells with acridine orange as described previously.^31 The number of acridine orange-positive cells was determined by fluorescence-activated cell sorting (FACS) analysis. Cell morphology was examined using fluorescence microscopy (Nikon, Melville, N.Y.) with the cells remaining in their culture flasks.

MCF7 cells = experiment: MTS cell viability/proliferation assay; assay type: cell-based, human
Text: (§3) Viable and dead cells were detected by the trypan blue exclusion assay, where viable cells (non-stained) with intact membrane are able to exclude the dye, while dead cells take up the coloring blue agent from the media. To quantitatively assess the viability and/or proliferation of cells a MTS assay was used, which incorporates a redox indicator that changes color in response to metabolic activity. To study cell viability in response to CaMK-III siRNA or control siRNA and plasmid encoding CaMK-III or empty plasmid transfection cells were seeded in 96-well plates at a density of 3×10^3 cells per well in 100 μl of medium. Next day the medium was removed and cells were transfected with siRNA at different concentrations in 100 μl of medium plus transfection mix. Two days after transfection, the medium was removed and replaced by 180 μl of medium plus 20 μl of MTS and the cells were incubated under normal conditions until the color changed. Plates were read at dual wavelengths (570-595 nm) in an Elisa plate reader (Kinetic Microplate Reader, Molecular Devices Corporation, Sunnyvale, Calif.).
as §1

MCF7 and MDA-MB231 cells = experiment: Acridine orange autophagy assay with MEK inhibitor PD98059; assay type: cell-based, human
Procedure: as §2

MCF-7 cells [2] = experiment: Apoptosis / cell death in MCF-7 cells (Annexin V, FACS); assay type: cell-based, human; details: Annexin V, MCF cells
Procedure: (§4) Apoptosis was assessed by an Annexin V assay, monitoring PARP and caspase 9 cleavage by Western blot. To provide a comparative assay of apoptosis by Annexin V labeling, tumor cells (1×10^6) treated with CaMK-III siRNA or control siRNA for 24 to 96 hours were harvested and washed with PBS. Cells were resuspended in binding buffer and stained with Annexin V and propidium iodide (PI) according to the manufacturer's protocol (BD Pharmingen Annexin V kit, San Diego, Calif.). Positive cells were detected and quantified by FACS analysis.

[3] = test system: STAT3, Bcl-2 and PI3K/Akt pathways; experiment: Signaling pathways after SB-224289 in breast cancer cells; assay type: cell-based; details: preliminary studies
MCF-7 cells [4] = experiment: Clonogenic survival assay; assay type: cell-based, human; details: various concentrations over two weeks, vs untreated
Procedure: (§5) To study the effect of CaMK-III growth of ER(−) and ER(+) breast cancer cells we performed a clonogenic assay, which is based on the ability of a single cell to grow into a colony (Franken N A, et al. Nat Protoc 2006: 1:2315-9), using MDA-MB-231 and MCF-7 cells, respectively. Cells were transfected with either CaMK-III or control siRNA (50 nM) […] over a period of two weeks.
(§6) This assay is an in vitro cell survival assay based on the ability of a single cell to grow into a colony. Briefly, cells (500 cells/well) were transfected with control siRNA or CaMK-III siRNA every week and grown for 2 to 3 weeks. Cells were stained with crystal violet and colonies were counted. Each experiment was repeated twice.
To study the effect of 5-HT1B on the survival and colony formation of breast cancer cells a clonogenic survival assay was performed using various concentrations of […] over a period of two weeks. This assay is based on the ability of a single cell to grow into a colony [Franken N A, et al. Nat Protoc 2006: 1:2315-2319]. […] Cell death and detachment as well as reduced cell number was observed.
This assay is an in vitro cell survival assay based on the ability of a single cell to grow into a colony. […] Cells were stained with crystal violet and colonies cells were counted. […]

MDA-MB-231 cells [5] = experiment: MTS cell viability/proliferation assay; assay type: cell-based, human; details: MTS assay, MB-231
Text: Viable and dead cells were detected by the trypan blue exclusion assay, the viability and/or proliferation of cells a MTS assay was used [Akar U, et al. Autophagy 2008: 4:669-79].
as §3, with “Two days after transfection, the medium was removed and replaced by 180 μl of medium plus 20 μl of MTS and the cells were incubated under normal conditions until the color changed.” left out
(aka proliferation assay, in this case MTS assay was used. MTS, MTT, XTT all similar assays often used as cell viability/toxicity assay). […] Plates were read at 490 nm wavelength in an Elisa plate reader (Kinetic Microplate Reader, Molecular Devices Corporation, Sunnyvale, Calif.).

MCF7/Dox resistant cells = experiment: MTS cell viability/proliferation assay; assay type: cell-based, human; details: MTS assay
Text: as §3, §1

[6] = mouse, in vivo
[7] = test system: ER+ MCF-7 breast cancer cells; experiment: Cell proliferation on serotonin treatment (cell counting); assay type: cell-based, human
MDA-MB-231 cells [8] = experiment: Annexin V staining and FACS analysis of apoptosis; assay type: cell-based, human
Procedure: To investigate whether inhibition of CaMK-III sensitizes drug (doxorubicin)-resistant MCF7/DoxR and MDA-MB-231 cells to chemotherapy, cells were treated with either CaMK-III (50 nM) or control siRNA (50 nM) for 24 hours and then with doxorubicin (ED50 dose) for 48 hours. The ED50 of doxorubicin was determined from a dose-escalation study in a proliferation assay. […] To determine the percent of cells undergoing apoptosis in response to doxorubicin alone and in combination with CaMK-III siRNA was detected by Annexin V staining and FACS analysis.
as §4

MDA-MB-231 cells [9] = experiment: Clonogenic survival assay; assay type: cell-based, human; details: paclitaxel 2 nM + CaMK-III siRNA
Procedure: as §5, §6
This assay is an in vitro cell survival assay based on the ability of a single cell to grow into a colony. Briefly, cells (500 cells/well) were transfected with different siRNA as described above and at 48 h post-transfection, cells were trypsinized and seeded into 6-well plates in the medium (500 cells/mL). Cells were transfected with control siRNA or CaMK-III siRNA every week and grown for 2 to 3 weeks. Cells were stained with crystal violet and colonies cells were counted. Each group was assayed in triplicate dishes, and each experiment was repeated twice.

CCCCCCCCCCCCOc1ccc2[nH]cc(CCN)c2c1.Cl [KD06]
cAMP levels (5-HT1B/1D receptor): decrease cAMP levels
toxicity against normal breast epithelium (MCF10A): not toxic
potency relative to 5-NT (breast cancer cells): more potent than 5-NT
cell survival (O.D.) in a large panel of breast cancer cells (breast cancer cells; incl. MDA-468, BT20, MDa-MB231, SKBR3, MDA-MB435, T47D, ZR75.1): effective against almost all breast cancer cell lines
effect of compound after knockdown of 5-HT1B or 5-HT1D receptor [1]: blunts the effect

COc1ccc(NC(=O)c2ccc(-c3ccc(-c4noc(C)n4)cc3C)cc2)cc1OCCN(C)C [SB216641]
phosphorylation of ERK (p42/p44) (ERK (p42/p44) and LC3-II): induced phosphorylation of ERK (p42/p44)
percentage of acridine orange positive cells (MCF7 breast cancer cells): 17%
cell viability (MCF7 cells; antagonist alone): 31%
cell viability (MCF7 cells; with 3-MA, p<0.05): 71%

Cc1nc(-c2ccc(-c3ccc(C(=O)N4CCc5cc6c(cc54)C4(CCN(C)CC4)CO6)cc3)c(C)c2)no1 [SB224289]
LC3-II, marker of autophagy (ERK (p42/p44) and LC3-II; MCF7 and MCF7/Dox-R cells): induction of LC3-II
phosphorylation of ERK (p42/p44) (ERK (p42/p44) and LC3-II): induced phosphorylation of ERK (p42/p44)
incidence of autophagy (MCF7 breast cancer cells; antagonist alone): 22.4%
percentage of acridine orange positive cells (MCF7 breast cancer cells): 23%
incidence of autophagy (MCF7 breast cancer cells; with 3-MA): 12%
percent positive cells with autophagy (MCF7 and MDA-MB231 cells; antagonist alone): 29.2%
percent positive cells with autophagy (MCF7 and MDA-MB231 cells; with ERK inhibitor (MEK inhibitor PD98059)): 18%
induction of apoptosis (MCF-7 cells [2]): induced apoptosis in a dose dependent manner
STAT3, Bcl-2 and PI3K/Akt pathways [3]: inhibits the STAT3 and Bcl-2 pathways, as well as the PI3K/Akt pathway
colony formation (MCF-7 cells [4]): grew more slowly and produced fewer colonies
inhibition of cell proliferation (MDA-MB-231 cells [5]): dose-dependent inhibition
EC50 (MCF7 cells; Homo sapiens, MCF7, MCF cells): 4.4 µM
inhibition of cell proliferation (MCF7 cells; MTS assay): dose-dependent inhibition
cell viability (MCF7 cells; antagonist alone): 42%
cell viability (MCF7 cells; with 3-MA, p<0.05): 61%
inhibition of cell proliferation (MCF7/Dox resistant cells): dose-dependent inhibition
toxicity in mice [6]: quite toxic in mice

NCCc1c[nH]c2ccc(O)cc12 [Serotonin, 5-hydroxytryptamine]
cell proliferation [7]: induced proliferation

COc1cccc2c1C(=O)c1c(O)c3c(c(O)c1C2=O)C[C@@](O)(C(=O)CO)C[C@@H]3O[C@H]1C[C@H](N)[C@H](O)[C@H](C)O1 [doxorubicin]
apoptosis induced by doxorubicin (Annexin V positive cells) (MDA-MB-231 cells [8]; doxorubicin alone, 48 h): 5%
apoptosis induced by doxorubicin (Annexin V positive cells) (MDA-MB-231 cells [8]; doxorubicin with CaMK-III siRNA): 55%

CC(=O)O[C@H]1C(=O)[C@@]2(C)[C@H]([C@H](OC(=O)c3ccccc3)[C@]3(O)C[C@H](OC(=O)[C@H](O)[C@@H](NC(=O)c4ccccc4)c4ccccc4)C(C)=C1C3(C)C)[C@]1(OC(C)=O)CO[C@@H]1C[C@@H]2O [paclitaxel]
inhibition of colony formation by paclitaxel with CaMK-III siRNA (MDA-MB-231 cells [9]): enhances efficacy
